Laboratory results reported in ChEMBL document CHEMBL5244235, “Diarylpentanoids with antitumor activity: A critical review of structure-activity relationship studies” (Eur J Med Chem, 2020).

Experiments:
[1] = tested on: HCT-116; test: Antiproliferative activity against human HCT116 cells assessed as cell growth inhibition measured after 96 hrs; assay type: functional, cell-based; conditions: HCT-116, 96 h
[2] = Cytotoxicity activity against mouse SVR cells assessed as cell growth inhibition at 4 ug/ml relative to control; assay type: toxicity, cell-based; conditions: at 4 µg/mL
[3] = Cytotoxicity activity against mouse SVR cells assessed as cell growth inhibition at 6 ug/ml relative to control; assay type: toxicity, cell-based; conditions: at 6 µg/mL
[4] = tested on: MCF7; test: Antiproliferative activity against human MCF7 cells assessed as cell growth inhibition measured after 72 hrs; assay type: functional, cell-based; conditions: MCF7, 72 h
[5] = tested on: PC-3; test: Antiproliferative activity against human PC-3 cells assessed as cell growth inhibition measured after 72 hrs; assay type: functional, cell-based; conditions: PC-3, 72 h
[6] = tested on: A-431; test: Antiproliferative activity against human A-431 cells assessed as cell growth inhibition measured after 72 hrs; assay type: functional, cell-based; conditions: A-431, 72 h
[7] = Antiproliferative activity against human OVK18 cells assessed as cell growth inhibition measured after 72 hrs; assay type: functional, cell-based; conditions: OVK18, 72 h
[8] = Antiproliferative activity against human PK-1 cells assessed as cell growth inhibition measured after 72 hrs; assay type: functional, cell-based; conditions: PK-1, 72 h
[9] = tested on: HCT-116; test: Antiproliferative activity against human HCT-116 cells assessed as cell growth inhibition measured after 72 hrs; assay type: functional, cell-based; conditions: HCT-116, 72 h
[10] = tested on: ACHN; test: Antiproliferative activity against human ACHN cells assessed as cell growth inhibition measured after 72 hrs; assay type: functional, cell-based
[11] = tested on: DLD-1; test: Antiproliferative activity against human DLD-1 cells assessed as cell growth inhibition measured after 96 hrs; assay type: functional, cell-based; conditions: DLD-1, 96 h
[12] = tested on: Huh-7; test: Antiproliferative activity against human Huh-7 cells assessed as cell growth inhibition measured after 72 hrs; assay type: functional, cell-based; conditions: Huh-7, 72 h
[13] = tested on: G-361; test: Antiproliferative activity against human G-361 cells assessed as cell growth inhibition measured after 72 hrs; assay type: functional, cell-based; conditions: G-361, 72 h
[14] = tested on: DLD-1; test: Antiproliferative activity against human DLD-1 cells assessed as cell growth inhibition measured after 72 hrs; assay type: functional, cell-based; conditions: DLD-1, 72 h
[15] = tested on: 8505C; test: Antiproliferative activity against human 8505C cells assessed as cell growth inhibition measured after 72 hrs; assay type: functional, cell-based
[16] = tested on: A549; test: Antiproliferative activity against human A549 cells assessed as cell growth inhibition measured after 72 hrs; assay type: functional, cell-based; conditions: A549, 72 h
[17] = tested on: GCIY; test: Antiproliferative activity against human GCIY cells assessed as cell growth inhibition measured after 72 hrs; assay type: functional, cell-based
[18] = Antiproliferative activity against human SH-10-TC cells assessed as cell growth inhibition measured after 72 hrs; assay type: functional, cell-based
[19] = tested on: HuCCT-1; test: Antiproliferative activity against human HuCCT-1 cells assessed as cell growth inhibition measured after 72 hrs; assay type: functional, cell-based; conditions: HuCCT-1, 72 h
[20] = tested on: THP-1; test: Antiproliferative activity against human THP-1 cells assessed as cell growth inhibition measured after 24 hrs by MTT assay; assay type: functional, cell-based; conditions: THP-1, 24 h
[21] = tested on: HepG2; test: Antiproliferative activity against human HepG2 cells assessed as cell growth inhibition measured after 24 hrs by MTT assay; assay type: functional, cell-based; conditions: HepG2, 24 h
[22] = tested on: HeLa; test: Antiproliferative activity against human HeLa cells assessed as cell growth inhibition measured after 24 hrs by MTT assay; assay type: functional, cell-based
[23] = tested on: K562; test: Antiproliferative activity against human K562 cells assessed as cell growth inhibition measured after 24 hrs by MTT assay; assay type: functional, cell-based; conditions: K562, 24 h
[24] = tested on: RPMI-7951; test: Growth inhibition of human RPMI-7951 cells measured after 72 hrs by microplate reader analysis; assay type: functional, cell-based; conditions: for GI50: RPMI-7951, time 72 hrs
[25] = Cytotoxicity against HUVEC cells assessed as cell growth inhibition by anti-angiogenisis screening assay; assay type: toxicity, cell-based; conditions: human
[26] = Cytotoxicity against mouse SVR cells assessed as cell growth inhibition by anti-angiogenisis screening assay; assay type: toxicity, cell-based
[27] = Cytotoxicity against mouse MS-1 cells assessed as cell growth inhibition by anti-angiogenisis screening assay; assay type: toxicity, cell-based
[28] = tested on: MDA-MB-231; test: Growth inhibition of human MDA-MB-231 cells measured after 72 hrs by microplate reader analysis; assay type: functional
[29] = tested on: SVR; test: Anti-angiogenesis activity in mouse SVR cells assessed as cell growth inhibition; assay type: functional, cell-based
[30] = tested on: HUVEC; test: Anti-angiogenesis activity in HUVEC cells assessed as cell growth inhibition; assay type: functional, cell-based; conditions: Homo sapiens
[31] = Anti-angiogenesis activity in […] MS-1 cells assessed as cell growth inhibition; assay type: functional, cell-based
[32] = tested on: B16; test: Antiproliferative activity against mouse B16 cells assessed as cell growth inhibition; assay type: functional, cell-based
[33] = tested on: MDA-MB-231; test: Antiproliferative activity against lung metastasis variant of human MDA-MB-231 cells assessed as cell growth inhibition; assay type: functional, cell-based
[34] = tested on: MCF7; test: Antiproliferative activity against human MCF7 cells assessed as cell growth inhibition; assay type: functional, cell-based
[35] = tested on: HCC1419; test: Antiproliferative activity against human HCC1419 cells assessed as cell growth inhibition; assay type: functional, cell-based
[36] = Antiproliferative activity against human MCF-10A cells assessed as cell growth inhibition; assay type: toxicity, cell-based
[37] = tested on: MDA-MB-231; test: Antiproliferative activity against human MDA-MB-231 cells assessed as cell growth inhibition; assay type: functional, cell-based
[38] = tested on: AGS; test: Antiproliferative activity against human AGS cells assessed as cell growth inhibition measured upto 72 hrs by MTT assay; assay type: functional, cell-based
[39] = tested on: KYSE-30; test: Antiproliferative activity against human KYSE-30 cells assessed as cell growth inhibition measured upto 72 hrs by MTT assay; assay type: functional, cell-based; conditions: KYSE-30, 72 h
[40] = tested on: MDA-MB-231; test: Antiproliferative activity against human MDA-MB-231 cells assessed as cell viability by WST-1 assay; assay type: functional, cell-based
[41] = tested on: NCI-H23; test: Antiproliferative activity against human NCI-H23 cells assessed as cell viability by WST-1 assay; assay type: functional, cell-based
[42] = tested on: MG-63; test: Antiproliferative activity against human MG-63 cells assessed as cell viability by WST-1 assay; assay type: functional, cell-based
[43] = tested on: A549; test: Antiproliferative activity against human A549 cells assessed as cell viability by WST-1 assay; assay type: functional, cell-based
[44] = tested on: MV4-11; test: Antiproliferative activity against human MV4-11 cells assessed as cell viability by WST-1 assay; assay type: functional, cell-based
[45] = tested on: MDA-MB-468; test: Antiproliferative activity against human MDA-MB-468 cells assessed as cell viability by WST-1 assay; assay type: functional, cell-based

`COCOc1c(OC)cc(/C=C/C(=O)/C=C/c2cc(OC)c(OCOC)c(OC)c2)cc1OC` showed an IC50 [1] of 0.25 µM.

In the case of `O=C(/C=C/c1c(Cl)cccc1Cl)/C=C/c1c(Cl)cccc1Cl`, the inhibition at 4 ug/ml [2] is reported as 87.1% and the inhibition at 6 ug/ml [3] is reported as 90.4%.

For `O=C1/C(=C/c2ccccc2)CCC/C1=C\c1ccccc1` [2,6-DIBENZYLIDENECYCLOHEXANONE], the IC50 [4] was over 50 µM, the IC50 [5] was over 50 µM and the IC50 [6] was over 50 µM. For the same compound, the IC50 [7] was over 50 µM, the IC50 [8] was over 50 µM and the IC50 [9] was over 50 µM. The IC50 [10] was over 50 µM, the IC50 [11] was 3 µM and the IC50 [12] was over 50 µM. It also gave an IC50 [13] of over 50 µM, an IC50 [14] of over 50 µM and an IC50 [15] of over 50 µM. For the same compound, the IC50 [16] was over 50 µM, the IC50 [17] was over 50 µM and the IC50 [18] was over 50 µM. The IC50 [19] was over 50 µM.

For `O=C1/C(=C/c2cccc(/N=C/c3ccc(O)cc3O)c2)CCC/C1=C\c1cccc(/N=C/c2ccc(O)cc2O)c1`, the IC50 [20] was under 5 µM, the IC50 [21] was under 5 µM and the IC50 [22] was under 5 µM. It also gave an IC50 [23] of under 5 µM.

`O=C(/C=C/c1cccc(O)c1)/C=C/c1cccc(O)c1` gave a GI50 [24] of 2.3 µM, a GI50 [25] of 3.2 µM and a GI50 [26] of 3.2 µM. It also gave a GI50 [27] of 3.2 µM and a GI50 [28] of 1 µM.

For `CN1C/C(=C\c2ccccc2O)C(=O)/C(=C/c2ccccc2O)C1`, the IC50 ([24]; RPMI-7951, 72 h) was 0.9 µM, the IC50 [29] was 1.1 µM and the IC50 [30] was 1.1 µM. For the same compound, the IC50 [31] was 1.1 µM and the GI50 [28] was 0.9 µM.

In the case of `COc1cc(/C=C2\CNC/C(=C\c3cc(OC)cc(OC)c3)C2=O)cc(OC)c1`, the IC50 [32] is reported as 0.2 µM.

Compound `CCN(CC)CCOc1cccc(C(=O)N2C/C(=C\c3ccccc3)C(=O)/C(=C/c3ccccc3)C2)c1` has an IC50 [33] of 0.53 µM, an IC50 [34] of 1.64 µM and an IC50 [35] of 1.46 µM. The IC50 [36] was 41 µM and the IC50 [37] was 0.72 µM.

Compound `Cc1ccc(/C=C2\CN(C(=O)c3ccc(OCCN(C)C)cc3)C/C(=C\c3ccc(C)cc3)C2=O)cc1` has an IC50 [33] of 0.53 µM, an IC50 [34] of 1.64 µM and an IC50 [35] of 1.46 µM. For the same compound, the IC50 [36] was 41 µM and the IC50 [37] was 0.72 µM.

`C#CCOc1ccc(/C=C2\CCC/C(=C\c3ccc(OCC#C)c(OC)c3)C2=O)cc1OC` gave an IC50 [38] of 0.56 µM and an IC50 [39] of 3.6 µM.

With `CCOc1ccc(/C=C2\CCC/C(=C\c3ccc(OCC)c(OC)c3)C2=O)cc1OC` the IC50 [38] was 0.72 µM and the IC50 [39] was 3.4 µM.

For `O=C(/C=C/c1ccc(O)cc1)/C=C/c1ccc(O)cc1`, the GI50 [24] was 2.3 µM, the GI50 [25] was 3.2 µM and the GI50 [26] was 3.2 µM. It also gave a GI50 [27] of 3.2 µM and a GI50 [28] of 1 µM.

`COc1ccc(/C=C/C(=O)/C=C/c2ccc(OC)c(OC)c2)cc1OC` showed an IC50 [1] of 1.5 µM.

In the case of `O=C1/C(=C/c2ccccc2Cl)CNC/C1=C\c1ccccc1Cl`, the IC50 [40] is reported as 0.39 µM, the IC50 [41] is reported as 0.39 µM and the IC50 [42] is reported as 0.39 µM. The IC50 [43] was 0.39 µM, the IC50 [44] was 0.39 µM and the IC50 [45] was 0.39 µM.

`O=C1/C(=C/c2ccc(Cl)cc2Cl)CNC/C1=C\c1ccc(Cl)cc1Cl` showed an IC50 [40] of 0.39 µM, an IC50 [41] of 0.39 µM and an IC50 [42] of 0.39 µM. For the same compound, the IC50 [43] was 0.39 µM, the IC50 [44] was 0.39 µM and the IC50 [45] was 0.39 µM.

With `COc1cc(/C=C/C(=O)/C=C/c2cc(OC)c(OC)c(OC)c2)cc(OC)c1OC` the IC50 [1] was 0.25 µM.
